The nature of the assay: In vitro assessment of phosphate binding. To be noted: 24 hours post-mixing. On the procedure: Test Preparations: Solutions of the test article (calcium propionate and magnesium propionate) and control article (calcium acetate) are prepared in deionized, purified water having 18 MO or greater resistance. The pH of each solution is adjusted to the desired value by the addition of concentrated hydrochloric acid or sodium hydroxide, as appropriate.
Tests and Assays: An HPLC method with conductivity detection was developed and validated for use in the determination of propionate, acetate and phosphate. HPLC analysis is performed using a Dionex Aquion ion chromatography system Detection of the anionic species is enabled using a Dionex ED50 Electrochemical Detector, operating in Conductivity Mode. Limits of Detection and Quantitation are enhanced through the use of a Dionex Anion Self-Regenerating Suppressor. After assay-specific development and verification of assay performance is completed, the analysis of phosphate and propionate or acetate is performed by sampling the test solution and diluting it, if necessary, to a concentration within the linear range of the Assay. The sample is then injected onto the HPLC column and eluted with a sodium hydroxide gradient. Data is acquired using Dionex Chromeleon® software. […]

Turning to `CC(=O)[O-].CC(=O)[O-].[Ca+2]` [calcium acetate], the Pi binding result reads like this: (pH 4.5) “about 60%”; (pH 6.8) “over 90%”.
